Experimental data taken from ChEMBL document CHEMBL5212743, “Selectivity Literature for EUbOPEN Chemogenomics Library wave 3” (2023).
One block for each compound: values may come before it.

Legend:
[1] = target: T1, Gamma-aminobutyric acid receptor subunit alpha-1 (Homo sapiens) (UniProt P14867); test: (§1) Selectivity interaction (GPCR panel (PDSP screen)) EUB0000334a GABRA1; conditions: at 10 µM
T1 sequence (whole entry): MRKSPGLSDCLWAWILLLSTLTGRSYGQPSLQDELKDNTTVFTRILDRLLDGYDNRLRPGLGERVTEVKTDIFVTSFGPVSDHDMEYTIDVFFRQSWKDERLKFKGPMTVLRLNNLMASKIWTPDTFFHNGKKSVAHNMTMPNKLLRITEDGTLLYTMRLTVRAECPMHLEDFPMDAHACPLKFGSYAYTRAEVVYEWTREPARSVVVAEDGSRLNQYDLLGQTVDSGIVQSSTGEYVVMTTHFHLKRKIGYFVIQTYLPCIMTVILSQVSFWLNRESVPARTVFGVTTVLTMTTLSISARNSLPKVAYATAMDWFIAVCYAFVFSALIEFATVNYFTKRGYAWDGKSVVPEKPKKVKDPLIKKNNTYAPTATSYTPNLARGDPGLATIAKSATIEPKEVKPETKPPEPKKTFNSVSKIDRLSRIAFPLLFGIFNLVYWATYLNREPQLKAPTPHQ

[2] = target: Rho-associated protein kinase 1 (Homo sapiens) (UniProt Q13464); test: Selectivity interaction (KinomeScan (DiscoverX)) EUB0000334a ROCK1; conditions: at 1 µM
Chain of Rho-associated protein kinase 1 (Homo sapiens) (Q13464 2-1354 limits assumed): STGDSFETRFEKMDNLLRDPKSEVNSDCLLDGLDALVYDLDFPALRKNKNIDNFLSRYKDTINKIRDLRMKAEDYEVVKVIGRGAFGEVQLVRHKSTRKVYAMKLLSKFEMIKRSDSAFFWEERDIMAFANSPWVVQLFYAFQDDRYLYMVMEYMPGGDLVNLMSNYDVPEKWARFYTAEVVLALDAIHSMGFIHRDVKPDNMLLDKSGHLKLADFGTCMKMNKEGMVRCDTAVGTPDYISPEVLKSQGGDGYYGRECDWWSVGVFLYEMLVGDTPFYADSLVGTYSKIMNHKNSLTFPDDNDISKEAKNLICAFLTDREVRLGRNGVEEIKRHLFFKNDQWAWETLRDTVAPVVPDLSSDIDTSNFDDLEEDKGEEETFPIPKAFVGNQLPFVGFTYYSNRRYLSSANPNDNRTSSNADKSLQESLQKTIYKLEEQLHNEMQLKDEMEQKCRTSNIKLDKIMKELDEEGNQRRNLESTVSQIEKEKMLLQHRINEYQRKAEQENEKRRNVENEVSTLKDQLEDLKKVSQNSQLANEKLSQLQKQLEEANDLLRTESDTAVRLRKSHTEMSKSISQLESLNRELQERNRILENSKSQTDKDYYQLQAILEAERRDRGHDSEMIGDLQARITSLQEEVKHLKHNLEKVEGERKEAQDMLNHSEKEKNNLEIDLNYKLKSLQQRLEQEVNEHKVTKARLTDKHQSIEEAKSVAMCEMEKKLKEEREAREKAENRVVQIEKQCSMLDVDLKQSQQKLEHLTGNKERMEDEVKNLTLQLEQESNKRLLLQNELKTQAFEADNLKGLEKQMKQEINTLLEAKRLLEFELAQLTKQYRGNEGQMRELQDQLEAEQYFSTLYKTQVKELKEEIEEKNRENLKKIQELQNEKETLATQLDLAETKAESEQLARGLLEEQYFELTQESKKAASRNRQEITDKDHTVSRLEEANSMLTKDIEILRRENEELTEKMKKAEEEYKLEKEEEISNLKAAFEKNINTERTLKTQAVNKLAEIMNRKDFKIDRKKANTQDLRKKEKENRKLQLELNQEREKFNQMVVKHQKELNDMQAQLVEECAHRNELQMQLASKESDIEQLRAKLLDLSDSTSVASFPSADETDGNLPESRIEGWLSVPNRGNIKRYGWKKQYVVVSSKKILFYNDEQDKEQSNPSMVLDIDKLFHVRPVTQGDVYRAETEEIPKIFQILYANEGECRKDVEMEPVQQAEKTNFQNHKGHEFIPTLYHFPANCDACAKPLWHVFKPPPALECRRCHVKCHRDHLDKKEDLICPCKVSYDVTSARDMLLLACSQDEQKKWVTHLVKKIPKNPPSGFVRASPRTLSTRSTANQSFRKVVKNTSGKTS

[3] = target: T1, Gamma-aminobutyric acid receptor subunit alpha-1 (Homo sapiens); test: as §1; conditions: at 10 µM; remark: listed apart in the source
[4] = target: Dual specificity tyrosine-phosphorylation-regulated kinase 1B (Homo sapiens, UniProt Q9Y463); test: Selectivity interaction (KinomeScan (DiscoverX)) EUB0000334a DYRK1B; conditions: at 1 µM
Chain of Dual specificity tyrosine-phosphorylation-regulated kinase 1B (Q9Y463 whole entry, looked up): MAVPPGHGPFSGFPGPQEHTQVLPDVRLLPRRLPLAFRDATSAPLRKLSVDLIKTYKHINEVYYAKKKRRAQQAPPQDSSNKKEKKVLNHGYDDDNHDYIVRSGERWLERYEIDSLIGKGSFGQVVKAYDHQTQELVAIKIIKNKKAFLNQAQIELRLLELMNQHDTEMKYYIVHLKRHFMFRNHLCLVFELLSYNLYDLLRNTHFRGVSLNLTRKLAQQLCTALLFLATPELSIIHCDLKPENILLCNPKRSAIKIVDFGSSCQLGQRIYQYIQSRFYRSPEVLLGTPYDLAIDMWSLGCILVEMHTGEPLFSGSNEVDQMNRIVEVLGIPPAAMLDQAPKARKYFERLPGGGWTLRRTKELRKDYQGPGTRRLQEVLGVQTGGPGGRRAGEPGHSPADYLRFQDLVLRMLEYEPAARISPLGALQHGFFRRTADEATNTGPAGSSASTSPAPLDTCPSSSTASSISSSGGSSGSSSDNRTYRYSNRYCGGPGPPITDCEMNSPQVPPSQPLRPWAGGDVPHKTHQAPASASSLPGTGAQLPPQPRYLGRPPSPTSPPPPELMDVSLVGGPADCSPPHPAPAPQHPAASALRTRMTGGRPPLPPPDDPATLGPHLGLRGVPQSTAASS

[5] = target: T2, Tyrosine-protein kinase JAK3 (Homo sapiens) (UniProt P52333); conditions: at 500 nM
T2 sequence (whole entry): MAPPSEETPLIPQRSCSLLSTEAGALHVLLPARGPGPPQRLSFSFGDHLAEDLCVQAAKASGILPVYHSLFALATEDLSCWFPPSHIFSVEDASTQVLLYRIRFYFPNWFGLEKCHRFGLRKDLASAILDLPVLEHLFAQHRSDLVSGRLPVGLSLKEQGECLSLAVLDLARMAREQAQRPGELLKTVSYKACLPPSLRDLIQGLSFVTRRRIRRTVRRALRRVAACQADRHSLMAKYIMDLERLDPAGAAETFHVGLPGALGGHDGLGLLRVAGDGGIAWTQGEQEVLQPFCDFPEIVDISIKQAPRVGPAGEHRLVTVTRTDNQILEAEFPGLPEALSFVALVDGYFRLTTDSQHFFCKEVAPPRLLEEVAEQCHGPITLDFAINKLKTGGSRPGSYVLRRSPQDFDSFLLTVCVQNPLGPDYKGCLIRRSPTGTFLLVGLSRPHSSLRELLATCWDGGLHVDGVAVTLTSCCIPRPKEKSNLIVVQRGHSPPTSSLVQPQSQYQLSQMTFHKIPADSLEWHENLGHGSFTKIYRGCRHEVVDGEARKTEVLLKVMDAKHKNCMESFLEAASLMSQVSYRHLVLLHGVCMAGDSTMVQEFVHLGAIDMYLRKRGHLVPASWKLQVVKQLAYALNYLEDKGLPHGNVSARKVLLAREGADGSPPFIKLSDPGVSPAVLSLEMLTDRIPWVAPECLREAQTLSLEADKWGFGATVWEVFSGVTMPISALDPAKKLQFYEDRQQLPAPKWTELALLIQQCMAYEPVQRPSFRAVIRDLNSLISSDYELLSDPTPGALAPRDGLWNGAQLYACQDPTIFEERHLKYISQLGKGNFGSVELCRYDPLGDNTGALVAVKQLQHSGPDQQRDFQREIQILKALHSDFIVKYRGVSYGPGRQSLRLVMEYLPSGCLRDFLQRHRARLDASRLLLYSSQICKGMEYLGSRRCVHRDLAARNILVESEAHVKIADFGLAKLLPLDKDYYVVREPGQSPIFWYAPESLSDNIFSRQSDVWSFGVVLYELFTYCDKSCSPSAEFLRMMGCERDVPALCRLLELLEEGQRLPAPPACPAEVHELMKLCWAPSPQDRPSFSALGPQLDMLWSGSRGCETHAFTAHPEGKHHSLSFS

[6] = target: Protein arginine N-methyltransferase 7 (Homo sapiens) (UniProt Q9NVM4); test: Selectivity interaction (Methyltransferase panel) EUB0000226b PRMT7; conditions: at 10 µM
[7] = target: Sodium-dependent dopamine transporter (Homo sapiens, UniProt Q01959); test: Selectivity interaction (CEREP ExpressProfile selectivity/specificity profile (human recombinant receptors)) EUB0000213bCl SLC6A3; conditions: at 10 µM
Chain of Sodium-dependent dopamine transporter (Q01959 whole entry): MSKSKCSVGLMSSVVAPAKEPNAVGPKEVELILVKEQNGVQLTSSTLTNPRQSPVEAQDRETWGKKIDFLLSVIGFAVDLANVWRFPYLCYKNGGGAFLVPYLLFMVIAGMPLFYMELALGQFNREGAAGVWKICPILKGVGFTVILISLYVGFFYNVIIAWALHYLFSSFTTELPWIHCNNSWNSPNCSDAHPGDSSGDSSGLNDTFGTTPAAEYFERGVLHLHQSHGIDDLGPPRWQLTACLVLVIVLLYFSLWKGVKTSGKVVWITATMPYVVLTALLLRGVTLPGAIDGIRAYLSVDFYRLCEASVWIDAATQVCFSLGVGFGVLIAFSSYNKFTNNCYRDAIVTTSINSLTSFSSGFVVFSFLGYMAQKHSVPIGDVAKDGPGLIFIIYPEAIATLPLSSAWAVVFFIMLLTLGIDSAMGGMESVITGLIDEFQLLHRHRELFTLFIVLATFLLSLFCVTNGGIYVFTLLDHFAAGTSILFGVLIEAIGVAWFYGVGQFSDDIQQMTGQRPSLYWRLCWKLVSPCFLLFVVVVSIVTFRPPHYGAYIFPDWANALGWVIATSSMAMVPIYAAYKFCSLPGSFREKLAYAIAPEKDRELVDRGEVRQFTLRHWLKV

[8] = target: 5-hydroxytryptamine receptor 1A (Homo sapiens) (UniProt P08908); test: Selectivity interaction (CEREP ExpressProfile selectivity/specificity profile (human recombinant receptors)) EUB0000213bCl HTR1A; conditions: at 10 µM
Chain of 5-hydroxytryptamine receptor 1A (Homo sapiens) (P08908 whole entry): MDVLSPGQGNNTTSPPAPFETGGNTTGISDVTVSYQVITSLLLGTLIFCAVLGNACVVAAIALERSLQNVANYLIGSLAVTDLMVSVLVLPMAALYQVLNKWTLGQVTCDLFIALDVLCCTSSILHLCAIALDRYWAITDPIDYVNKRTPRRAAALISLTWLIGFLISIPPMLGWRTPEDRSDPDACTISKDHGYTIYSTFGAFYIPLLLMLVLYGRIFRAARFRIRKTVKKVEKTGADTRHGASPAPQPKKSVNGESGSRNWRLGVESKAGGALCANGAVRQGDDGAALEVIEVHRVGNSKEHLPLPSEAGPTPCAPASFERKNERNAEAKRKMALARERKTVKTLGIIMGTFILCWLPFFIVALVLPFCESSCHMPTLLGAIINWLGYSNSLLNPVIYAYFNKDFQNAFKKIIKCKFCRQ

[9] = target: Sodium-dependent serotonin transporter (Homo sapiens) (UniProt P31645); test: Selectivity interaction (CEREP ExpressProfile selectivity/specificity profile (human recombinant receptors)) EUB0000213bCl SLC6A4; conditions: at 10 µM
Chain of Sodium-dependent serotonin transporter (Homo sapiens) (P31645 whole entry, looked up): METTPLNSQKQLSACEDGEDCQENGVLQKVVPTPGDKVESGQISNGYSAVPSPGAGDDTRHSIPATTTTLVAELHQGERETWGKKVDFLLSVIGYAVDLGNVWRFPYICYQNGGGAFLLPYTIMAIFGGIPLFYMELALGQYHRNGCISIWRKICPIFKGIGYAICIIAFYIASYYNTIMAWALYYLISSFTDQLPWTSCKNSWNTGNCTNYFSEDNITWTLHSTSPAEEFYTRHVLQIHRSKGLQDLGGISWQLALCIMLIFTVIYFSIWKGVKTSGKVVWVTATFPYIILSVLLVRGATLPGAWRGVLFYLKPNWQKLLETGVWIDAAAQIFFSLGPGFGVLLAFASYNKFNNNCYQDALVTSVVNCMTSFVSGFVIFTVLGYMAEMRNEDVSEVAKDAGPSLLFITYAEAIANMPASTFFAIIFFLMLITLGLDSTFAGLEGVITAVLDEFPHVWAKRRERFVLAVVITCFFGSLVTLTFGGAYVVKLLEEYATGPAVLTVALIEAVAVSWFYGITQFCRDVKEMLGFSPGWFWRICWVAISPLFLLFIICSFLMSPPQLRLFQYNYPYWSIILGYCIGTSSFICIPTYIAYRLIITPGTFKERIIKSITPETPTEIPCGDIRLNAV

[10] = target: Histone-lysine N-methyltransferase NSD3 (Homo sapiens) (UniProt Q9BZ95); test: Selectivity interaction (Methyltransferase panel) EUB0000198b NSD3; conditions: at 10 µM
Chain of Histone-lysine N-methyltransferase NSD3 (Homo sapiens) (Q9BZ95 whole entry): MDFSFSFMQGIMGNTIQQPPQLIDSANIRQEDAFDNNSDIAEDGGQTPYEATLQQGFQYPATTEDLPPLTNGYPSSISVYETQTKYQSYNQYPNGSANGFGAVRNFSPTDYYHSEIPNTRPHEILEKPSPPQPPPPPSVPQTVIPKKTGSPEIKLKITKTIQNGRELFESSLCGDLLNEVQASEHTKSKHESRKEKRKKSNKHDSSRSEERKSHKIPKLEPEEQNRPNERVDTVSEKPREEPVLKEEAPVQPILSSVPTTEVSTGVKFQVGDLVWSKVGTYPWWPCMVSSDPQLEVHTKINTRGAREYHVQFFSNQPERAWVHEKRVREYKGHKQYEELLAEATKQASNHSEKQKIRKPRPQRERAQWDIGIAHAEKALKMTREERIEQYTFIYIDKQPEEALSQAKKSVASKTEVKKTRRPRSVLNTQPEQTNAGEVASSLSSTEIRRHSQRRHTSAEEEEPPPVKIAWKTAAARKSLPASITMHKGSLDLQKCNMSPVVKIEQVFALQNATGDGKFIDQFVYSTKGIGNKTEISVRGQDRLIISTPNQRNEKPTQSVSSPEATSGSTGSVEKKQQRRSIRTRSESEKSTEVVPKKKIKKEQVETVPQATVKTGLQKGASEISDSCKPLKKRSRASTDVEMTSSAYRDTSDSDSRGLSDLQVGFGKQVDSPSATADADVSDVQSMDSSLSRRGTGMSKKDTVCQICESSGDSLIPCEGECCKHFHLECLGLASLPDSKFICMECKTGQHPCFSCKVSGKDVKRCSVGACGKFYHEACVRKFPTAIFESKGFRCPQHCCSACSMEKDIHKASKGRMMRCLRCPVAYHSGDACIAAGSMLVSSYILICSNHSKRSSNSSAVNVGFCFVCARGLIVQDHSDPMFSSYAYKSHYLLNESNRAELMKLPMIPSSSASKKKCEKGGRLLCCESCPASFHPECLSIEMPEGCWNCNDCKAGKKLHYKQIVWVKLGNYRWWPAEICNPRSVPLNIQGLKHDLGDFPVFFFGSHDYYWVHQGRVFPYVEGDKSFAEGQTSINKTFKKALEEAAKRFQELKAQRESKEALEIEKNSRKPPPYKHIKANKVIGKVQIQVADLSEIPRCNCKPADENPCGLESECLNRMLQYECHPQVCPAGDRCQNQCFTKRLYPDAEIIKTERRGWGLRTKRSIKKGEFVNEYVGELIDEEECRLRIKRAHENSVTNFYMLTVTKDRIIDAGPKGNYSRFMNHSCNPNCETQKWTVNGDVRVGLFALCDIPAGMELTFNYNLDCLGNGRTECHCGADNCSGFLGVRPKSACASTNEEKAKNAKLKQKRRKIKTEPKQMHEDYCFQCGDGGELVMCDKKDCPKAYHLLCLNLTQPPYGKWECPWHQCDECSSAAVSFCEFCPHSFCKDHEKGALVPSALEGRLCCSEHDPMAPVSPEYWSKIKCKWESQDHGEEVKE

Structure (SMILES): CN([C@@H]1CCc2c(CC(=O)O)c3cc(S(C)(=O)=O)ccc3n2C1)S(=O)(=O)c1ccc(F)cc1
- inhibition [1]: 41%
- % of control [2]: 6%
- inhibition [3]: 45%
- % of control [4]: 36%

Structure (SMILES): CN(C)C(=O)/C(C#N)=C/c1ccc(-c2nc3cnc4[nH]ccc4c3n2C2CCCCC2)o1
- % of inhibition [5]: 97%

Structure (SMILES): c1ccc([C@@H]2C[C@H]2NC2CCNCC2)cc1
- % of inhibition [7]: 39%
- % of inhibition [8]: 49%
- % of inhibition [9]: 74%

Results, then the compound that gave them:

- % activity remaining [6]: 75%
Structure (SMILES): Nc1ncnc2c1ccn2[C@@H]1O[C@H]([C@H](O)c2ccccc2)[C@@H](O)[C@H]1O

- % of inhibition [10]: 75%
Structure (SMILES): O=C(NC[C@H](O)CN1CCc2ccccc2C1)c1ccnc(NC2CCC2)c1
